# Experiments:
# Format in all cases: cell membranes, Membrane
# [1] = Displacement of [3H]KAIN from kainate receptor in rat cortical membranes
# [2] = Displacement of [3H]AMPA from AMPA receptor in rat cortical membranes
# Glutamate NMDA receptor = experiment: Displacement of [3H]CGP39653 from NMDA receptor in rat cortical membranes
IC50 [1] [µM],IC50 [2] [µM],Ki (Glutamate NMDA receptor) [µM],Compound
> 100,> 100,,N[C@H](C[C@H]1CC(C(=O)O)=NO1)C(=O)O (racemic)
> 100,> 100,0.026,N[C@H](C[C@H]1CC(C(=O)O)=NN1c1ccccc1)C(=O)O (racemic)
> 100,> 100,,N[C@H](C[C@@H]1CC(C(=O)O)=NO1)C(=O)O (racemic)
> 100,> 100,0.17,N[C@H](C[C@H]1CC(C(=O)O)=NN1)C(=O)O (racemic)
> 100,> 100,0.2,N[C@H](C[C@@H]1CC(C(=O)O)=NN1c1ccccc1)C(=O)O (racemic)
> 100,> 100,9.9,N[C@H](C[C@@H]1CC(C(=O)O)=NN1Cc1ccccc1)C(=O)O (racemic)
> 100,> 100,1.4,N[C@H](C[C@H]1CC(C(=O)O)=NN1Cc1ccccc1)C(=O)O (racemic)
> 100,> 100,1.7,N[C@H](C[C@@H]1CC(C(=O)O)=NN1)C(=O)O (racemic)
